Data reported in US5021439A, “Cerebral function ameliorating agents related to Tan-950 A” (priority 1988, dated 1991).

What was measured:
NMDA-type receptor = test: Binding assay of NMDA-type receptor (3H-CPP) on rat forebrain crude synaptic membrane; conditions: for IC50: 10 nM 3H-CPP, pH 7.1, 0° C., 15 min, read-out: Affinity to NMDA-type receptor (3H-CPP), IC50; for Affinity to the NMDA-type-receptor (in words): summary of Table 5
Text: (§1) The receptors of the exitatory amino acid (especially, glutamate) are classified into NMDA type, Quisqualate type and Kainate type. 3H-CPP [3-(2-carboxypiperazin-4-yl)propyl-1-[…]] as the ligand (a radio active substance which has high affinity for the receptor) for the NMDA-type-receptor, ^3 H-AMPA (DL-α-amino-3-hydroxy-5-methylisoxazole-4-propionic acid) as the ligand for the quisqualate-type-receptor, and ^3 H-kainic acid as the ligand for the kainate-type-receptor were used respectively. A sample of the crude synaptic membrane prepared from the forebrain of rat was washed 4 times by Tris hydrochloric acid buffer (pH 7.1) and kept in a freezing condition at -20° C. until its use.
(§2) Samples of the frozen crude synaptic membrane were melted and, after floating on 50 mM Tris hydrochloric acid buffer (pH 7.1), incubated for 30 minutes at 37° C. After the incubation, the synaptic membrane was centrifuged (48,000×g) and washed 3 times with 50 mM Tris hydrochloric acid buffer and used in the test.
(§3) In the binding assay of the NMDA-type-receptor, samples of the synaptic membrane were incubated in the presence or absence of a test compound together with 10 nM ^3 H-CPP in 50 mM Tris hydrochloric acid buffer (pH 7.1, 0° C.) for 15 minutes. The sediment (pellet) containing synapse membrane which was recovered by centrifugation of the incubation solution was rinsed with 50 mM Tris hydrochloric acid buffer (pH 7.1) and dissolved in 0.5 ml of Protosol® (made by New England Nuclear Inc.). In the binding assay of Quisqualate-type-receptor and Kainate-type-receptor, samples of the synapse was incubated in the presence or absence of a test compound in 5 nM ^3 H-AMPA (Quisqualate-type-receptor) or 2 nM ^3 H-Kainic acid (Kainate-type-receptor) together with 50 mM Tris hydrochloric acid buffer (pH 7.1, 0° C.) for 90 minutes. The solution was filtered with Whatman GF/B filter (Whatman®, made by Whatman Inc.) under reduced pressure and the filter was washed 3 times with 50 mM Tris hydrochloric acid buffer. The radioactivity on the filter was measured by a conventional method. The specific binding amount was determined by subtracting the non-specific binding from the total binding, taking the binding in the presence of an excessive non-radioactive L-sodium glutamate (1 mM) as the amount of the non-specfic binding, i.e., the binding to anything other than the receptor. The 50% inhibiting concentration (IC50) of the compound to be tested was determined as the concentration which inhibits 50% of the specific receptor binding of ^3 H-CPP, ^3 H-AMPA or ^3 H-kainic acid.

[1] = biological target: Quisqualate-type receptor; test: Binding assay of Quisqualate-type receptor (3H-AMPA) on rat forebrain crude synaptic membrane; conditions: for IC50: 5 nM 3H-AMPA, pH 7.1, 0° C., 90 min, read-out: Affinity to Quisqulate-type receptor (3H-AMPA), IC50; for Affinity to the Quisqualate-type-receptor (in words): summary of Table 5
Text: as §1, §2
as §3, with “receptor.” for “receptor. The 50% inhibiting concentration (IC50) of the compound to be tested was determined as the concentration which inhibits 50% of the specific receptor binding of ^3 H-CPP, ^3 H-AMPA or ^3 H-kainic acid.”

Kainate-type receptor = test: Binding assay of Kainate-type receptor (3H-kainic acid) on rat forebrain crude synaptic membrane; conditions: for Affinity to Kainate-type receptor (3H-KA), IC50: 2 nM 3H-Kainic acid, pH 7.1, 0° C., 90 min; for Affinity to the Kainate-type-receptor (in words): summary of Table 5
Text: as §1, §2
as §3, with “receptor.” for “receptor. The 50% inhibiting concentration (IC50) of the compound to be tested was determined as the concentration which inhibits 50% of the specific receptor binding of ^3 H-CPP, ^3 H-AMPA or ^3 H-kainic acid.”

[2] = test system: glutamate receptor (NMDA type, Quisqualate type and Kainate type); test: Affinity for the glutamate receptors of the brain, 3 sub-types taken together; type: binding, rat; conditions: summary of Table 5
Text: as §1, §2, §3

[3] = test system: neurons of rat hippocampus; test: Excitatory action on neurons of rat hippocampus in vitro (CA1 spike recording in slices); type: cell-based; conditions: Rattus norvegicus, Neuron, rat hippocampal slices, CA1 pyramidal cell layer, Krebs-Ringer solution 33° C.; read-out: Minimum effective concentration to induce firing of hippocampus nervous cell
Method: Male Wister rats (body weight: 300 -350 g) were used in the test. After cutting the head of rats, the brain was quickly taken out and […] thickness of the sliced samples of a hippocampus was prepared by a slice cutter. These samples were incubated in a nutrient solution (Krebs-Ringer solution, 33° C.) saturated with a mixed gas of 95% of oxygen gas and 5% of carbon dioxide gas for one or more hours. The test was carried out in the perfusion cisterna with perfusing at the flow speed of 1.5 ml/min. The action potential (spike) in CA1 pyramidal cell layer of the hippocampus was recorded extracellularlly by using a glass electrode filled with 2M NaCl solution. The test compounds were added to the perfusate and the change in number of the spikes with passage of time was counted by a pulse counter and recorded on the recorder. The Krebs-Ringer's solution contains 124 mM of NaCl, 5 mM of KCl, 1.24 mM of KH2 PO4, 1.3 mM of MgSO4, 2.4 mM of CaCL2, 26 mM of […] and 10 mM of glucose.

[4] = Conversion of each component of TAN-950 in aqueous solution (HPLC); type: physicochemical; conditions: for TAN-950A in resulting substance, area percentage by HPLC / TAN-950B in resulting substance, area percentage by HPLC / TAN-950C in resulting substance, area percentage by HPLC / TAN-950D in resulting substance, area percentage by HPLC / TAN-950E in resulting substance, area percentage by HPLC: starting material heated in aqueous solution, 1 hour
Text: The mixture of TAN-950A - E was applied to HPLC in order to isolate each component thereof and each component was isolated as approximately single peak compound.

[5] = test system: Memory Dysfunction Induced by Cycloheximide Administration; test: Improvement of cycloheximide-induced memory dysfunction, passive avoidance in mice; type: in vivo, C57BL/b mice; conditions: 10 mg/kg, i.p.; twice, 30 min before acquisition and before retention test; memory impairment group = 100; * in table: p < 0.05
Method: Experimental memory disturbance was induced by administering a protein synthesis inhibiting agent, cycloheximide to C57BL/b male mice of 5 week-age. The memory test was carried out using a passive avoidance learning equipment consisting of two chambers of dark and bright. At first, a memory acquisition process of mice was carried out. In this process, a mouse was released in the bright chamber and the guillotine type door connecting between bright and dark chambers was open. Immediately after the mouse that likes a dark place having entered into the dark chamber, said guillotine type door was closed and an electric shock of 0.4 mA was given to the mouse for 3 seconds through the floor grid. Mice learned through this process to receive electric shock from the floor once they move to the dark chamber. However, the memory formation in mice that received cycloheximide (60 mg/Kg) subcutaneously 30 minutes before this memory acquisition process becomes insufficient. The memory retention test was carried out in accordance with similar procedures with mice which received cycloheximide (memory dysfunction group) and normal mice on the next day that the memory acquisition process was carried out. A time from the release of mice in the bright chamber to the entry into the dark chamber through the guillotine type door opened was measured (latency). The latency was shorter in the memory dysfunction group and the effectiveness of the compounds was determined in terms of a degree of the prolongation of latency. The test compounds were intraperitoneally administered twice in total to the mice each 30 minutes before the memory acquisition process and the memory keeping test.
The effect of the compounds in improving a memory dysfunction was expressed as a percentage in which the latency in the memory impairment group at the memory retention test was regarded as 100, and the results are shown in Table 7.

Row | Compound | IC50 (NMDA-type receptor) [µM] | Affinity to the NMDA-type-receptor (in words) (NMDA-type receptor) | IC50 [1] [µM] | Affinity to Kainate-type receptor (3H-KA), IC50 (Kainate-type receptor) [µM] | Affinity to the 3 sub-type receptors (in words) [2] | minimal effective concentration [3] [µM] | Affinity to the Quisqualate-type-receptor (in words) [1] | Affinity to the Kainate-type-receptor (in words) (Kainate-type receptor) | Conversion in aqueous solution (in words) ([4]; aqueous solution, 60° C.) | TAN-950A in resulting substance, area percentage by HPLC ([4]; 60° C.) [%] | TAN-950B in resulting substance, area percentage by HPLC ([4]; 60° C.) [%] | TAN-950C in resulting substance, area percentage by HPLC ([4]; 60° C.) [%] | TAN-950D in resulting substance, area percentage by HPLC ([4]; 60° C.) [%] | TAN-950E in resulting substance, area percentage by HPLC ([4]; 60° C.) [%] | Tested Retention Time (percentage to control group), latency [5] | Conversion in aqueous alkaline solution (in words) ([4]; aqueous alkaline solution, room temperature)
1 | CCc1[nH]oc(=O)c1[C@@H](N)C(=O)O [Compound 180] | 7.9 | high affinity | > 100 | > 100 | differences in their affinities | ≥ 30 | – | – | – | – | – | – | – | – | – | –
2 | Cc1[nH]oc(=O)c1[C@@H](N)C(=O)O [Compound 155] | 8.3 | high affinity | > 100 | > 100 | differences in their affinities | ≥ 10 | – | – | – | – | – | – | – | – | – | –
3 | CCc1[nH]oc(=O)c1C[C@H](N)C(=O)O [Compound 81] | 35 | – | 0.67 | 17 | high affinities to the 3 sub-type receptors | ≥ 1 | strong affinity | – | – | – | – | – | – | – | – | –
4 | N[C@@H](Cc1c[nH]oc1=O)C(=O)N1CCCCC1C(=O)O (some centres unmarked) [Compound 132] | 6.3 | high affinity | 1 | 4.5 | high affinities to the 3 sub-type receptors | ≥ 300 | strong affinity | strong affinity | – | – | – | – | – | – | – | –
5 | N[C@@H](C(=O)O)c1c[nH]oc1=O [Compound 149] | 5.8 | high affinity | > 100 | > 100 | differences in their affinities | ≥ 30 | – | – | – | – | – | – | – | – | – | –
6 | N[C@@H](Cc1c(C2CC2)[nH]oc1=O)C(=O)O [Compound 173] | 13 | – | 0.12 | 3.8 | high affinities to the 3 sub-type receptors | ≥ 0.3 | strong affinity | strong affinity | – | – | – | – | – | – | – | –
7 | CC(C)c1[nH]oc(=O)c1C[C@H](N)C(=O)O [Compound 84] | > 100 | – | 3.8 | 67 | high affinities to the 3 sub-type receptors | ≥ 3 | – | – | – | – | – | – | – | – | – | –
8 | N[C@@H](Cc1c(-c2ccccc2)[nH]oc1=O)C(=O)O [Compound 87] | 11 | – | 15 | 26 | high affinities to the 3 sub-type receptors | 30 | – | – | – | – | – | – | – | – | – | –
9 | TAN-950B [Compound 2] | – | – | – | – | – | – | – | – | converted to TAN-950A faster than TAN-950C and E | 55.0 | 12.5 | 7.7 | 11.3 | 4.3 | – | –
10 | N[C@@H](CCC(=O)O)C(=O)O [Glutamic acid, reference compound] | – | – | – | – | – | – | – | – | – | – | – | – | – | – | 101 percentage to control group | –
11 | N[C@@H](Cc1c(C2CCCC2)[nH]oc1=O)C(=O)O [Compound 158] | > 100 | – | 0.31 | 57 | differences in their affinities | ≥ 0.3 | strong affinity | – | – | – | – | – | – | – | – | –
12 | TAN-950C [Compound 3] | – | – | – | – | – | – | – | – | – | 12.3 | 2.8 | 72.1 | 3.4 | 5.2 | – | promptly converted to TAN-950A in an aqueous alkaline solution at room temperature
